According to patent US20230055021A1, “METHODS FOR TREATING PSYCHIATRIC DISORDERS OR SYMPTOMS THEREOF USING NCAM PEPTIDE MIMETICS” (The Board of Trustees of the Leland Stanford Junior …, priority 2012, published 2023):

How the values were obtained:
adult rats [1] = experiment: elevated plus maze (EPM), anxiety-like behavior; type: in vivo; details: 1, 5 or 10 mg/kg s.c., injected 30 minutes before test
Method: The NCAM peptide mimetic FGLL (1 mg/kg, 5 mg/kg, or 10 mg/kg) or control was administered subcutaneously (s.c.) to adult rats. For the elevated plus maze (EPM), which measures anxiety-like behavior, animals were injected 30 minutes before the test. For the FST, which measures depression-like behavior, animals were injected 1 hour and 5 hours after Day 1 and 30 minutes before Day 2.
The NCAM peptide mimetic plannexin (10 mg/kg) or vehicle control was acutely administered intraperitoneally (i.p.) to adult rats.
Plannexin (10 mg/kg, i.p.) or control was also chronically administered to adult rats via injection every 48 hours on odd days. Animals were tested for locomotion on Day 13, tested for anxiety-like behavior with the EPM on Day 14, tested for depression-like behavior with the FST on Days 15 and 16, and sacrificed on Day 17.

adult rats [2] = experiment: forced swim test (FST), depression-like behavior; type: in vivo
Method: The NCAM peptide mimetic FGLm (5 μg) or vehicle was administered intracerebroventricularly (i.c.v.) to adult rats. […]
FGLL (10 mg/kg, s.c.) or control was also administered to adult rats via injection every 24 hours for 16 days. Animals were tested for locomotion on Day 13, tested for anxiety-like behavior with the EPM on Day 14, tested for depression-like behavior with the FST on Days 15 and 16, and sacrificed on Day 17. […]

[3] = 10 mg/kg s.c. every 24 hours for 16 days, FST on Days 15 and 16

Molecule: CC(C)[C@H](NC(=O)[C@H](CCC(=O)O)NC(=O)CNCC(=O)N[C@@H](CCC(=O)O)C(=O)N[C@H](C(=O)N[C@H](C(=O)N[C@@H](C)C(=O)N[C@@H](CCC(=O)O)C(=O)N[C@@H](CC(N)=O)C(=O)N[C@@H](CCC(N)=O)C(=O)N[C@@H](CCC(N)=O)C(=O)NCC(=O)N[C@@H](CCCCN)C(=O)N[C@@H](CO)C(=O)N[C@@H](CCCCN)C(=O)N[C@@H](C)C(N)=O)C(C)C)C(C)C)C(=O)N[C@H](C(=O)N[C@@H](C)C(=O)N[C@@H](CCC(=O)O)C(=O)N[C@@H](CC(N)=O)C(=O)N[C@@H](CCC(N)=O)C(=O)N[C@@H](CCC(N)=O)C(=O)NCC(=O)N[C@@H](CCCCN)C(=O)N[C@@H](CO)C(=O)N[C@@H](CCCCN)C(=O)N[C@@H](C)C(N)=O)C(C)C (stereo in doubt) [FGLL]
- effect on anxiety as measured by the EPM (adult rats [1]): increased anxiety
- time spent in the Closed parts of the EPM (adult rats [1]; effect at higher doses): significantly increased
- climbing in FST (adult rats [2]; [3]): significantly more climbing
- effect on depression as measured by the FST (adult rats [2]; [3]): decreased depression
- immobility in FST (adult rats [2]; [3]): less immobility

Molecule: EVYVVAENQQGKSKA [FGLm, NCAM peptide mimetic]
- effect on depression as measured by the FST (adult rats [2]; 5 μg i.c.v., vs vehicle): decreased depression
- immobility in FST (adult rats [2]; 5 μg i.c.v., vs vehicle): less immobility
- swimming in FST (adult rats [2]; 5 μg i.c.v., vs vehicle): significantly more swimming
